# Assay results: patent US20240156790A1, “COMPOUNDS, COMPOSITIONS, AND METHODS FOR MODULATING FERROPTOSIS AND TREATING EXCITOTOXIC DISORDERS” (THE TRUSTEES OF COLUMBIA UNIVERSITY IN THE CITY OF NEW YORK, priority 2018, published 2024)
# Entries after “also recorded” stand apart in the source; their conditions may differ. Where two headings read alike, the source gives them in different places.
# How the values were obtained:
# [1] = test system: modified bacteria sensitive to mutagenic agents; type: cell-based; conditions: […] to 82 μM, 3 days
# Method: The AMES test uses modified bacteria sensitive to mutagenic agents to assess a compound's ability to cause direct DNA mutations. If the tested drug can induce reverse mutational events, it will cause bacteria to revert back to a prototrophic state and grow on media lacking selected nutrients. We tested TH-2-31, TH-4-55-2, and TH-4-67 using the AMES test. CFI-4082 was also included in the test for comparison. Bacteria strains were incubated under exposure to different concentrations of tested compounds for 3 days and collected 144 data points of mutation status at each concentration. The concentration ranged from 5.1 μM to 82 μM, which is the highest local organ concentration of our compounds in the above mice study (FIG. 12).
# The Ames test uses modified bacteria sensitive to mutagenic agents to assess a compound's ability to cause direct DNA mutations. If a tested compound can induce revert mutational events, it will cause bacteria to revert back to a prototrophic state and grow on media lacking selected nutrients. We evaluated TH-2-31, TH-4-55-2, and TH-4-67 in the Ames test. We also included PHB4082 in this test. Bacteria strains were incubated under exposure to different concentrations of tested compounds for three days and 144 data points were collected on mutation status across a concentration range from 5.1 μM to 82 μM, which was the highest local organ concentration observed in previous mouse studies.
# [2] = TH-2-31, TH-4-55-2, TH-4-67 PK Study (IP, IV, PO; plasma and brain); type: in vivo, C57BL/6 mice; conditions: for Cmax brain (nM) / concentration in brain following IV administration (rapid accumulation) / half-life / concentration at 24 h / Cmax: 20 mg/kg; for half-life / concentration at 24 h / Cmax: both sexes, C57BL/6, mouse; for half-life: read-out: in vivo brain t1/2; for brain penetrance / accumulation in brain over plasma, in words: mouse, in vivo; for stability / accumulation in plasma in vivo, in words: up to 24 hours
# Method: C57BL/6 mice (8-weeks of age and ˜25 g weight) were weighed before injection and divided into groups of two male and female mice per cage. Compound was dissolved in 5% DMSO/95% of 1:1 [(65% v/v of 25% w/v 2-hydroxypropyl-3-cyclodextrin (Cayman Chemical) dissolved in 20% EtOH, 30% v/v Poly(ethylene glycol)-400 (Sigma Aldrich 202398), 5% v/v Tween 80 (Fluka 59924)):MilliQ water] to create a 2 mg/mL solution. The same formulation without compound was used as a vehicle control. The solution was sterilized using a […] Steriflip filter unit (Thomas Scientific 1189Q46). Mice were dosed IP, IV, and PO routes of administration and euthanized by CO2 asphyxiation for 3 min at 0, 1, 2, 4, 8, and 24 h after administration. To ensure that the vehicle was well-tolerated 4 mice were treated with vehicle and euthanized 4 h after administration. ˜0.5 mL of blood was collected via cardiac puncture and immediately put in K3 EDTA microtubes ([…] 41.1504.105) and kept on ice. Organs were harvested, placed in Eppendorf tubes, and frozen on dry ice. Blood samples were centrifuged for 10 min at 2,100×g at 4° C., then plasma was transferred to a clean tube and frozen on dry ice. Organ samples were weighed and placed in hard tissue homogenizing tubes (Omni International 19-628) and a volume of DEPC-treated nuclease-free water (IBI Scientific IB42200) was added to make a 500 mg/mL solution and homogenized using the Omni Bead Ruptor 4 at speed 5 for 30 seconds. Compound was extracted from plasma or organ homogenate by adding 900 μL acetonitrile to 100 μL plasma or organ homogenate. Samples were mixed by vortexing and allowed to extract overnight at 4° C. prior to mixing for at least 5 min by rotating at room temperature, vortexing, and sonicating for at least 30 second prior to centrifugation for 10 min at 4,000×g and 4° C. The supernatant was then transferred to a glass vial and analyzed by UPLC-MS described below. The concentration of each analog was determined against a standard curve with a nonlinear fit and the data plot in GraphPad Prism 9 and fit with a one phase decay.
# Samples from animal studies were analyzed via UPLC-MS using a Waters Xevo G2-Xs QTof Mass spectrometer equipped with an Acquity UPLC. Chromatographic separation was carried out at 50° C. on a Acquity UPLC BEH C18 column (1.7 μm, 2.1 mm×50 mm, pore size 130 Å) over a 4.5 min gradient elution. The flowrate was held constant at 0.8 mL/min. Mobile phase A consisted of water and mobile phase B consisted of ACN both containing 0.1% formic acid. After injection, the gradient was held at 50% A for 0.25 min. For the next minute, the gradient was ramped in a linear fashion to 100% B and held at this composition for 0.5 min. The eluent composition returned to the initial condition in 0.01 min and the column was re-equilibrated for 2.74 min before the next injection. Injection volumes were 0.5 μL (TH-2-31 40 mg/kg) and 1 μL for all other conditions. The Xevo G2-Xs was operated in positive electrospray ionization (ESI) mode. A capillary voltage and sampling cone voltage of 0.5 kV and 30 V were used. The source and desolvation temperatures were kept at 120° C. and […], respectively. Nitrogen was used as the desolvation gas with a flowrate of 750 L/hr. The protonated molecular ion of leucine encephalin ([M+H]^+, m/z 556.2771 was used as a lock mass for mass accuracy and reproducibility. Leucine enkephalin was introduced to the lock mass at a concentration of 2 ng/mL (50% ACN containing 0.1% formic acid), and a flow rate of […]. To avoid signal saturation, the signal transmission was attenuated to <10%, based off the signal intensity of the highest standard concentration for the duration of the run. The data was collected over the mass range m/z 50 to 1200 Da with an acquisition time of 0.1 seconds per scan. The retention time for each analog is detailed below. […]
# [3] = plasma, all routes of administration, read-out: concentration in plasma 24 hours after administration
Structure (SMILES),mutagenic potential (Ames test result) [1],Cmax brain/ IC50 ([2]; IP),Cmax brain (nM) ([2]; IP),Cmax brain/ IC50 ([2]; IV),Cmax brain (nM) ([2]; IV),concentration in brain following IV administration (rapid accumulation) ([2]; IV),Cmax brain/ IC50 ([2]; PO),Cmax brain (nM) ([2]; PO),"half-life ([2]; brain, ip, R.O.A. IP) [h]","half-life ([2]; brain, iv, R.O.A. IV) [h]","half-life ([2]; brain, po, R.O.A. PO) [h]","Cmax ([2]; plasma, ip) [µM]","Cmax ([2]; plasma, iv) [µM]","Cmax ([2]; plasma, po) [µM]","concentration at 24 h [2, 3] [µM]","brain penetrance / accumulation in brain over plasma, in words [2]","stability / accumulation in plasma in vivo, in words [2]",other results
"Cc1noc(-c2cnc(NC3CCCCC3)c(NC3CCCCC3)c2)n1 [TH-2-31, N^2,N^3-dicyclohexyl-5-(3-methyl-1,2,4-oxadiazol-5-yl)pyridine-2,3-diamine]",none of the compounds had mutagenic potential,633,"2,133 nM","99,335","334,759 nM",greater than 300 μM,353,"1,190 nM",> 8,< 1,> 24,50.9,25.8,2.24,> 0.5,preferentially accumulate in brain over plasma for all time-points following IV administration,–,"concentration at 24 h ([2]; brain, iv, read-out: concentration in brain 24 hours after administration): 10 µM"
"CCC(CC)Nc1cc(-c2nc(C)no2)cnc1NC1CCCCC1 [TH-4-55-2, N^2-cyclohexyl-5-(3-methyl-1,2,4-oxadiazol-5-yl)-N^3-(pentan-3-yl)pyridine-2,3-diamine]",none of the compounds had mutagenic potential,"1,765","3,936 nM","35,567","79,314 nM",> 75 µM,632,"1,410 nM",> 8,< 1,> 24,63.8,32.1,2.93,> 0.8,preferentially accumulate in brain over plasma for all time-points following IV administration,accumulated the most,"time present in plasma at μM concentrations ([2]; all routes of administration): up to 8 hours; concentration at 24 h ([2]; brain, other: IP and PO, IP and PO administration, read-out: concentration in brain 24 hours post administration): > 1 µM"
"Cc1noc(-c2cnc(NC3CCCC3)c(NC3CCCC3)c2)n1 [TH-4-67, N^2,N^3-dicyclopentyl-5-(3-methyl-1,2,4-oxadiazol-5-yl)pyridine-2,3-diamine]",none of the compounds had mutagenic potential,"1,389","2,916 nM","24,820","52,121 nM",> 50 µM,740,"1,554 nM",–,< 1,–,82.1,40.6,1.77,< 0.025,–,accumulated the least; also recorded: the least stable,"time present in plasma at μM concentrations ([2]; IP administration): up to 2 hours; time present in plasma at μM concentrations ([2]; PO and IV administration): up to 1 hour; concentration at 24 h ([2]; brain, all routes of administration, read-out: concentration in brain 24 hours post administration): < 0.2 µM"
